Source: BigSolDB 2.1

O=[N+]([O-])c1cc([N+](=O)[O-])c(Cl)c(Cl)c1Cl
solubility (mole fraction)
Conditions	278.15 K	283.15 K	288.15 K	293.15 K	298.15 K	303.15 K	308.15 K	313.15 K	318.15 K	323.15 K
in 1,2-dichloroethane	0.06	0.0736	0.0895	0.108	0.13	0.155	0.185	0.219	0.258	0.301
in DMF	0.194	0.211	0.23	0.251	0.274	0.298	0.324	0.352	0.384	0.419
in DMSO	–	–	–	0.238	0.262	0.287	0.315	0.345	0.378	0.412
in NMP	0.278	0.291	0.305	0.321	0.338	0.357	0.377	0.4	0.425	0.454
in acetone	0.109	0.124	0.141	0.16	0.181	0.204	0.229	0.257	0.289	0.323
in acetonitrile	0.0401	0.0511	0.0644	0.0806	0.1	0.123	0.15	0.183	0.22	0.265
in chloroform	0.0536	0.066	0.0807	0.0982	0.118	0.141	0.169	0.201	0.237	0.279
in dichloromethane	0.0689	0.0822	0.0975	0.116	0.135	0.159	0.185	–	–	–
in ethanol	0.00235	0.00301	0.00382	0.00483	0.00611	0.00765	0.00957	0.0118	0.0146	0.0182
in ethyl acetate	0.097	0.111	0.128	0.146	0.167	0.191	0.217	0.245	0.279	0.314
in isopropanol	0.000879	0.00125	0.00174	0.00241	0.00333	0.00451	0.00603	0.00807	0.0107	0.0142
in methanol	0.00262	0.0033	0.00414	0.00519	0.00648	0.00806	0.00985	0.0121	0.0149	0.0182
in n-butanol	0.00175	0.00238	0.0032	0.00428	0.00565	0.00752	0.00967	0.0126	0.0164	0.021
in tetrachloromethane	0.00374	0.00582	0.00891	0.0134	0.0201	0.0296	0.0425	0.0609	0.0864	0.12
in toluene	0.14	0.159	0.18	0.204	0.23	0.258	0.289	0.323	0.36	0.4
